Test results from US20200087403A1, “PHARMACEUTICAL COMPOSITIONS FOR THE TREATMENT OF THROMBOSIS IN PATIENTS SUFFERING FROM A MYELOPROLIFERATIVE NEOPLASM” (INSERM (INSTITUT NATIONAL DE LA SANTÉ ET DE LA RECHERCHE …, priority 2017, published 2020).

B1: crizanlizumab: anti-P-selectin antibody, SEG101 also named crizanlizumab (antibody, chains of the INN, looked up, V domains shown)
VH: QVQLVQSGAEVKKPGASVKVSCKVSGYTFTSYDINWVRQAPGKGLEWMGWIYPGDGSIKYNEKFKGRVTMTVDKSTDTAYMELSSLRSEDTAVYYCARRGEYGNYEGAMDYWGQGTLVTVSS
VL: DIQMTQSPSSLSASVGDRVTITCKASQSVDYDGHSYMNWYQQKPGKAPKLLIYAASNLESGVPSRFSGSGSGTDFTLTISSLQPEDFATYYCQQSDENPLTFGGGTKVEIK

What was measured:
JAK2V617F HUVECs [1] = experiment: Quantification of VWF in HUVEC supernatant; type: cell-based, human; conditions: 24 hours with 100 μM hydroxyurea
Experimental: Quantification of VWF in HUVEC supernatant and in HUVECs. HUVEC cell were seeded in 12 wells plate (Costar). When they were confluent, they were washed with 500 μL of PBS (Gibco ThermoFisher Scientific) before adding 500 μL of medium not deprived. Experiments were performed in absence or in presence of TNF-alpha (10 ng/ml during 24 hours) (Merck Millipore). After 24 hours, supernatant was removed, centrifuged at 12000 g during 5 minutes and stored at −80° C. To quantify vWF in HUVECs, cells were washed with PBS before adding in wells 500 μL of PBS. Cells were destroyed in wells with scrapper. Liquid was removed and 5 freezing and thawing successions were performed. Finally, the intracellular lysates were centrifuged at 12000 g during 5 minutes and stored at −80° C. As previously published^45, vWF was quantified following this method: […] plate (Greiner, Flat Bottom) were coated with an anti-vWF antibody (DAKO, Les Ulis, France, A0082) diluted at 1/660 in a coating buffer overnight at 4° C. After washing and blocking, sample of HUVEC supernatant and intracellular lysate were put in wells. Standards were realized with a platelet poor plasma from a healthy donor. […] After 2 minutes of coloration, the reaction was blocked with a H2SO4 3M solution and reading was performed at 492 nm with OPTIMA plate reader. […]

[2] = system: Pdgfb-iCreERT2;JAK2^V617F/WT mice; experiment: Intravital microscopy of mesenteric venules (leukocyte rolling and adhesion); type: in vivo; conditions: HU 200 mg/kg/day oral gavage 10 days, low dose TNF-alpha
Text: (§1) Generation and characterization of Pdgfb-iCreERT2;JAK2^V617F/WT mice. The conditional flexed JAK2 (JAK2V617F/WT) mice were generously provided by J. L Villeval and have been previously described^19. The double-heterozygous Pdgfb-iCreERT2;JAK2^V617F/WT mice were generated by crossing JAK2^V617F/WT mice with Pdgfb-iCreERT2 mice allowing tamoxifen-inducible adult expression of JAK2^V617F in endothelium. Littermate Pdgfb-iCreERT2-negative;JAK2^V617F/WT mice were used as controls. To induce Cre activity in Pdgfb-iCreERT2;JAK2^V617F/WT mice, we used oral gavage of a single dose of 8 mg of tamoxifen. Tamoxifen induction was performed in 5 weeks-old animals. Mutant mice were analysed 2-3 weeks after tamoxifen administration. Ears of adult mice were genotyped by PCR. Haematocrit, hemoglobin level, platelet, and white cells count were determined using an automated counter (scil Vet abc Plus+) on blood collected from the sublingual vein in EDTA containing tubes. […]
Video analysis. Rolling leukocytes were quantitated by counting the number of rhodamin-marked cells passing a given plane perpendicular to the vessel axis in 30 seconds. Adherent leukocytes were quantitated by counting the number of rhodamin-marked cells motionless during 30 seconds. Vessel surface was quantitated to perform the following ratio: adherent cells/vessel surface (number of cells/cm2). […]

JAK2V617F HUVECs [3] = experiment: In vitro static adhesion on endothelial cells; type: cell-based, human; conditions: HUVECs pretreated 24 hours with hydroxyurea 100 μM
Experimental: Cell culture/Lentivirus transduction. Human umbilical venous endothelial cells (HUVECs, Lonza, Basel, Swiss) were cultured in EGM-2 media (Lonza, CC-3156) supplemented with EGM-2 Single Quots (Lonza, CC-4176). Cells were transduced with GFP lentivirus encoding human JAK2V617F or JAK2WT by adding lentiviral supernatant to the medium and incubating overnight at 37° C. An empty lentivirus encoding only for GFP was used as a negative control. Lentivirus were transduced at a multiplicity of infection of 20, allowing more than 95% of GFP positive cells. Transgene stability was verified after each passage and remaining stable throughout the passages. HUVECs were used for experiments between passage 5 and passage 7.
In vitro static adhesion on endothelial cells. Blood samples were performed from well healthy voluntary witnesses. Blood was diluted with PBS (1/2 dilution) and deposed on lymphocyte separation medium (Pancoll, Dominique Dutscher, Brumath, France) before centrifugation at 450 g during 20 minutes to obtain mononuclear cells (MNC). […] We visualized adherent cells using a fluorescent microscope (AxioObserver, Zeiss, Oberkochen, Germany) and analysed images by ZEN imaging software (Zeiss). Well surface was quantified in order to obtain the following ratio: number of adherent cells/mm2. […]

[4] = system: Pdgfb-iCreERT2;JAK2^V617F/WT mice; experiment: Mouse model of thrombus formation (low dose TNF-alpha induced lung thrombus formation); type: in vivo; conditions: HU 200 mg/kg/day oral gavage 10 days
Text: as §1
Histology. To quantify thrombus formation in mice, Carstair's staining was performed. […] Thrombus quantification was performed using an optical microscope and pulmonary area was quantitated to perform the following ratio: thrombi number/pulmonary area (number of thrombi/cm2). Three slides by mice were analysed by two independent observers, blindly. […]

sickle cell mice = conditions: TNF-alpha treated sickle cell mice; cited from earlier work
P-selectin = biological target: T1, P-selectin (Homo sapiens, UniProt P16109); conditions: clinical trial, patients; cited from earlier work
T1 construct: host or cells: sickle cell disease patients (cited clinical trial)
T1 sequence (P16109 42-830): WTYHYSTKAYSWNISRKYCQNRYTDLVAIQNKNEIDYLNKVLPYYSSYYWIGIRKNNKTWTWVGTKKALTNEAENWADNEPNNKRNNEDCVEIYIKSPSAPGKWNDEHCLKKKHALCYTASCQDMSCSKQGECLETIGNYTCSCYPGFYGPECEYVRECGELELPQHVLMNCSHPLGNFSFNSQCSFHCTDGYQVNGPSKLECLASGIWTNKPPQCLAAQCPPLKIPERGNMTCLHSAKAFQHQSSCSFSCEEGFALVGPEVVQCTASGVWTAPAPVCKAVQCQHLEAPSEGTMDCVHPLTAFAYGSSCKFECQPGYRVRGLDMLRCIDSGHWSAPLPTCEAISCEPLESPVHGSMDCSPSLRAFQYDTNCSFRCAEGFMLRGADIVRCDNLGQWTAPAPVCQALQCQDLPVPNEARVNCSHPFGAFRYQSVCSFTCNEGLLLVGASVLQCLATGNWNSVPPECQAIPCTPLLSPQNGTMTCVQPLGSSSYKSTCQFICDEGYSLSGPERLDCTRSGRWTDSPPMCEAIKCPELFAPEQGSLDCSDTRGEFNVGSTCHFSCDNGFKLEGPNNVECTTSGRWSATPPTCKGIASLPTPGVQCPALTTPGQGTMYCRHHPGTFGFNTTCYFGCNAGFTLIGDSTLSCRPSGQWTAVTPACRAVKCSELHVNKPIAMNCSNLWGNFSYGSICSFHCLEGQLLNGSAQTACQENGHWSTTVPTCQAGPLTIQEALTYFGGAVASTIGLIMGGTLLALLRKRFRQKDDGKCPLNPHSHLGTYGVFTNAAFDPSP

Row | Molecule | vWF concentrations in the supernatant of JAK2V617F HUVECs (JAK2V617F HUVECs [1]) | leukocyte adhesion [2] | leukocyte rolling [2] | neutrophil adhesion on JAK2V617F HUVECs (JAK2V617F HUVECs [3]) | thrombus formation in lungs [4] | leukocyte rolling in the microvasculature (sickle cell mice) | pain crises in sickle cell disease (P-selectin)
1 | NC(=O)NO [hydroxyurea] | decreased | reduction | reduction | significant reduction | significant inhibition | reduction | –
2 | B1 | – | – | – | – | – | – | efficiently prevented
